{"source": "paper PMC9861162", "about": "(Pharmaceuticals, 2022)", "key": {"[1]": {"test_system": "several pathogenic fungi, such as Tricophyton verrucosum, Tricophyton rubrum, Trycophyton mantagrophutes, Microsporum gypseum, Microsporum canis, and …", "details": "ref [1]-[7]; cited from earlier work"}, "tinea cruris": {"test_system": "tinea cruris", "details": "topical treatment of tinea cruris; ref [4]; cited from earlier work"}, "CYP2C8": {"target": "T1, CYP2C8 (Homo sapiens, UniProt P10632)", "T1 sequence (P10632 1-490)": "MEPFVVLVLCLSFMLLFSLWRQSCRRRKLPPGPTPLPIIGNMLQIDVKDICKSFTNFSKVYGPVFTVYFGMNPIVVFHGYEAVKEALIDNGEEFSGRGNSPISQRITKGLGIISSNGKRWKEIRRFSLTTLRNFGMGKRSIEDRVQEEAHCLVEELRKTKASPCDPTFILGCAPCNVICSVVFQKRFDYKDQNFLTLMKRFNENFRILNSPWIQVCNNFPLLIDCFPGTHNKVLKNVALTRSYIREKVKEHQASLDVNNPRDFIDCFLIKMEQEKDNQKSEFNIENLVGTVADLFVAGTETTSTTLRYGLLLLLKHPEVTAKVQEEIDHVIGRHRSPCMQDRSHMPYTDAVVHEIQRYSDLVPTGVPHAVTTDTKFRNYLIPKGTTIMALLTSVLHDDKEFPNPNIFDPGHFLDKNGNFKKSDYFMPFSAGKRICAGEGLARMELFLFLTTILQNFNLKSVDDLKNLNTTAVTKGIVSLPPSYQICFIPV", "source_text": "(§1) The Ki input values were estimated from the ratio IC50/2. Since the IC50 experiments were designed considering the substrate concentration equal to Km, the simplification of Ki as IC50/2 was considered for a competitive inhibition reaction.\n(§2) The following Equation (4) was considered for the potential DDI evaluation:(4) AUCR=AUCwith inhibitor/AUCwithout inhibitor where AUCR is the area under the curve ratio, AUCwith inhibitor is AUC in the presence of the inhibitor, and AUCwithout inhibitor is AUC in the absence of the inhibitor."}, "CYP2C9": {"target": "CYP2C9 (Homo sapiens, UniProt P11712)", "sequence (P11712 whole entry)": "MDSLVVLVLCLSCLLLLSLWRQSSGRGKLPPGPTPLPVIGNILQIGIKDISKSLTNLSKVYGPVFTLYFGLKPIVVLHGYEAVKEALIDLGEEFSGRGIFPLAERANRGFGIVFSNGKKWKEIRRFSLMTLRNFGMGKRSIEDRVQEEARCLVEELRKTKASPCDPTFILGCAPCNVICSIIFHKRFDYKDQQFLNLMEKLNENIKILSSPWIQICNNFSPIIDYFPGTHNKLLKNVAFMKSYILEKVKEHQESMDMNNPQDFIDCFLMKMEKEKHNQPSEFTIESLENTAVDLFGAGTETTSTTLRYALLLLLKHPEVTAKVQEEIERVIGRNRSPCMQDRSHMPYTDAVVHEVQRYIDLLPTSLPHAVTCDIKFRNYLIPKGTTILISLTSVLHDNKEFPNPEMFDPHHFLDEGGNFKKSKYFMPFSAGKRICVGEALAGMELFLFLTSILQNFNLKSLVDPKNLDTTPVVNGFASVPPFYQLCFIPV", "source_text": "as §1, §2"}, "CYP2D6": {"target": "CYP2D6 (Homo sapiens, UniProt P10635)", "sequence (P10635 whole entry)": "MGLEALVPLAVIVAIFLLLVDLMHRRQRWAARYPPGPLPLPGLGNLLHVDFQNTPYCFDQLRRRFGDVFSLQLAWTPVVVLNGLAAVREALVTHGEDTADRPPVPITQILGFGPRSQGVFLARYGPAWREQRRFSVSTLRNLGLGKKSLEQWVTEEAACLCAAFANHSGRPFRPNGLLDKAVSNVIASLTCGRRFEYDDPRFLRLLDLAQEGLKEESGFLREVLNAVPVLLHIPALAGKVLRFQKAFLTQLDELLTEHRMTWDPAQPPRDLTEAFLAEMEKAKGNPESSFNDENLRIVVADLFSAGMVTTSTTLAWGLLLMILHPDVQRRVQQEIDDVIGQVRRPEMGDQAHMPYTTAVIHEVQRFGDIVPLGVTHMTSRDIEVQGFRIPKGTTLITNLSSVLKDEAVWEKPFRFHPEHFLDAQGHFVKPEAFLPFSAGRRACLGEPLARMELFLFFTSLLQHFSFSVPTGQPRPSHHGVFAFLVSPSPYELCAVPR", "source_text": "as §1, §2"}, "[2]": {"set-up": "method as in Antunes et al. [14]", "details": "ref Antunes et al. [14], cited from earlier work"}, "[3]": {"set-up": "method as in Drugbank", "details": "PBPK input; ref Drugbank; cited from earlier work"}, "interdigital tinea pedis": {"test_system": "interdigital tinea pedis", "details": "ref [3]; cited from earlier work"}, "[4]": {"test": "dapaconazole PBPK model in dogs (Simcyp)", "set-up": "species or system dog", "method": "A PBPK model was first developed in dogs using a hybrid PBPK approach employing the in vivo clearance reported in dogs. The input parameters are described in Table 4.\nThen, the full PBPK model, which used the method 2 (Rodgers and Rowland [15]) to predict the volume of distribution at steady-state conditions (Vss) was evaluated.\nAll modeling was conducted using Simcyp modeling software (v. 20, Certara, Princeton, NJ, US). […] All of the input parameters are described in Table 4.\nThe Simcyp minimal PBPK, which considers all organs other than the intestine and liver as a single compartment, plus a SAC distribution model were selected. […] The Vss was predicted using Rodgers and Rowland’s equations (method 2). A Kp scalar was determined to best describe the observed dog data using a sensitivity analysis approach. The final values of Vsac, kin, and kout were determined from the parameter estimation approach selecting the best values to describe the shape of the observed PK profile. For the elimination model development, the in vivo systemic clearance values reported in dogs were employed in a middle-out approach. […] The PBPK model was evaluated through a visual comparison of observed in vivo plasma concentration–time profiles with the concentrations predicted in dogs, and the PK parameters within observed/predicted ratios between 0.5-fold to 2-fold were considered acceptable."}, "[5]": {"details": "all trials; ref [3],[4],[5]; cited from earlier work"}, "CYP3A4": {"test_system": "CYP3A4", "test": "clinical DDI prediction, static (IVIVE) and dynamic (PBPK) models, CYP3A4", "details": "for FDA Classification as CYP inhibitor: higher of static and dynamic AUCR; for R1: reversible inhibition", "source_text": "as §1, §2"}}, "note": "“Also recorded” adds a separate entry of the source."}
{"smiles": "FC(F)(F)c1ccc(COC(Cn2ccnc2)c2ccc(Cl)cc2Cl)cc1", "note": "(centres unmarked) [dapaconazole, Dapaconazole]", "values": [{"measurement": "antifungal activity", "setting": "[1]", "value": "antifungal activity"}, {"measurement": "efficacy compared with miconazole", "setting": "tinea cruris", "value": "noninferior efficacy"}, {"measurement": "DDI potential from Ki and R1 values", "setting": "CYP2C8", "value": "low potential"}, {"measurement": "R1", "setting": "CYP2C8", "value": 1.01}, {"measurement": "DDI potential from Ki and R1 values", "setting": "CYP2C9", "value": "high potential"}, {"measurement": "R1", "setting": "CYP2C9", "value": 4.43}, {"measurement": "DDI potential from Ki and R1 values", "setting": "CYP2D6", "value": "high potential"}, {"measurement": "R1", "setting": "CYP2D6", "value": 1.86}, {"measurement": "fu,inc", "setting": "[2]; human liver microsome incubation", "value": 0.94}, {"measurement": "CL int. mic.", "setting": "[2]; human liver microsomes", "value": 118.5, "unit": "µL/min/mg"}, {"measurement": "log P", "setting": "[3]", "value": 5.63}, {"measurement": "pKa (monoprotic base)", "setting": "[3]", "value": 6.77}, {"measurement": "efficacy compared with ketoconazole", "setting": "interdigital tinea pedis", "value": "noninferior efficacy"}, {"measurement": "AUC0-t Observed/predicted ratio", "setting": "[4]; intravenous 1 mg/kg", "value": 0.83}, {"measurement": "CL Observed/predicted ratio", "setting": "[4]; intravenous 1 mg/kg", "value": 1.29}, {"measurement": "Cmax Observed/predicted ratio", "setting": "[4]; intravenous 1 mg/kg", "value": 0.92}, {"measurement": "t1/2 Terminal Observed/predicted ratio", "setting": "[4]; intravenous 1 mg/kg", "value": 1.08}, {"measurement": "AUC0-t Observed/predicted ratio", "setting": "[4]; intravenous 2 mg/kg", "value": 1.27}, {"measurement": "CL Observed/predicted ratio", "setting": "[4]; intravenous 2 mg/kg", "value": 1.09}, {"measurement": "Cmax Observed/predicted ratio", "setting": "[4]; intravenous 2 mg/kg", "value": 1.78}, {"measurement": "t1/2 Terminal Observed/predicted ratio", "setting": "[4]; intravenous 2 mg/kg", "value": 1.29}, {"measurement": "AUC0-t Observed/predicted ratio", "setting": "[4]; intravenous 20 mg/kg", "value": 0.65}, {"measurement": "CL Observed/predicted ratio", "setting": "[4]; intravenous 20 mg/kg", "value": 1.54}, {"measurement": "Cmax Observed/predicted ratio", "setting": "[4]; intravenous 20 mg/kg", "value": 0.58}, {"measurement": "t1/2 Terminal Observed/predicted ratio", "setting": "[4]; intravenous 20 mg/kg", "value": 1.04}, {"measurement": "safety profile", "setting": "[5]", "value": "good safety profile"}, {"measurement": "DDI potential from Ki and R1 values", "setting": "CYP3A4; CYP3A", "value": "high potential"}, {"measurement": "FDA Classification as CYP inhibitor", "setting": "CYP3A4; CYP3A4, substrate midazolam", "value": "Strong (AUCR ≥ 5: strong inhibitor)"}, {"measurement": "FDA Classification as CYP inhibitor", "setting": "CYP3A4; CYP3A4, substrate nifedipine", "value": "Strong (AUCR ≥ 5: strong inhibitor)"}, {"measurement": "FDA Classification as CYP inhibitor", "setting": "CYP3A4; CYP3A overall", "value": "strong inhibitor; also recorded: moderate to strong inhibition"}, {"measurement": "R1", "setting": "CYP3A4; substrate midazolam", "value": 98.26}, {"measurement": "R1", "setting": "CYP3A4; substrate nifedipine", "value": 25.70}]}
